Assay results as given in ChEMBL document CHEMBL5143673, “The evaluation of N-propargylamine-2-aminotetralin as an inhibitor of monoamine oxidase” (Bioorg Med Chem Lett, 2022).

Assays:
[1] = target: T1, Amine oxidase [flavin-containing] A (Rattus norvegicus, UniProt P21396); experiment: Inhibition of rat brain MAOA using kynuramine substrate by fluorescence spectrophotometry; type: toxicity
T1 sequence (P21396 whole entry): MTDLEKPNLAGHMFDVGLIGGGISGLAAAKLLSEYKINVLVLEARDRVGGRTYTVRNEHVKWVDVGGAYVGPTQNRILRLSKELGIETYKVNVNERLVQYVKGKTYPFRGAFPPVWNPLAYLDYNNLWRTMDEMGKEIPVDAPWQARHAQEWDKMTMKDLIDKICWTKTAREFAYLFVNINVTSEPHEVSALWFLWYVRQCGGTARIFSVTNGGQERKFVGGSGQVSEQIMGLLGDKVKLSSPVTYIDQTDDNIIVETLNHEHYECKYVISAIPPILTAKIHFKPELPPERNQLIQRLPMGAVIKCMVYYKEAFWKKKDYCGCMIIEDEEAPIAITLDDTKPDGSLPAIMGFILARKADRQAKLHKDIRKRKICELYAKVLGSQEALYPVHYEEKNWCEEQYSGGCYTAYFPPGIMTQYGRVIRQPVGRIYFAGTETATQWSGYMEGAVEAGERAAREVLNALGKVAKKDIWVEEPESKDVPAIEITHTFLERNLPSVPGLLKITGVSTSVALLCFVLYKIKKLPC

[2] = target: T2, Amine oxidase [flavin-containing] B (Rattus norvegicus, UniProt P19643); experiment: Inhibition of rat brain MAOB using kynuramine substrate by fluorescence spectrophotometry
T2 sequence (P19643 whole entry): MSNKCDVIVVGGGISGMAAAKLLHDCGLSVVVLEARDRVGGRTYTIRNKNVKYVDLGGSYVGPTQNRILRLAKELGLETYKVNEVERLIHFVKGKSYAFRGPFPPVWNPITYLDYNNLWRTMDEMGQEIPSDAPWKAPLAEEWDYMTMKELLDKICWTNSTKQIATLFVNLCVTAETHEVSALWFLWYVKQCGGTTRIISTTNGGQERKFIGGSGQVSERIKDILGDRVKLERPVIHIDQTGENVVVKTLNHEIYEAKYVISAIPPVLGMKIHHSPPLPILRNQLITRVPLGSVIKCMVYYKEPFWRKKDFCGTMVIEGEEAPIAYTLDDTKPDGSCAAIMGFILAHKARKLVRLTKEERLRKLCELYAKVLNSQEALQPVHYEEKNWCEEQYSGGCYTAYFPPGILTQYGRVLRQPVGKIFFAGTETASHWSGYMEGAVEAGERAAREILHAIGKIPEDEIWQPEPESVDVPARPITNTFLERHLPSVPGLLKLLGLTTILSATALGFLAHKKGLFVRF

Homo sapiens = species: Homo sapiens; experiment: Selectivity index, ratio of IC50 for inhibition of human recombinant MAOA to IC50 for human recombinant MAOB
[3] = target: T3, Amine oxidase [flavin-containing] B (Homo sapiens, UniProt P27338); experiment: Inhibition of human recombinant MAOB assessed as enzyme activity recovery level at 4 times IC50 using kynuramine substrate incubated for 15 mins followed by without dialysis by fluorescence spectrophotometry; parameters: scale not given: the % may be the effect or the level left; settings: 0.25 h
T3 sequence (P27338 whole entry): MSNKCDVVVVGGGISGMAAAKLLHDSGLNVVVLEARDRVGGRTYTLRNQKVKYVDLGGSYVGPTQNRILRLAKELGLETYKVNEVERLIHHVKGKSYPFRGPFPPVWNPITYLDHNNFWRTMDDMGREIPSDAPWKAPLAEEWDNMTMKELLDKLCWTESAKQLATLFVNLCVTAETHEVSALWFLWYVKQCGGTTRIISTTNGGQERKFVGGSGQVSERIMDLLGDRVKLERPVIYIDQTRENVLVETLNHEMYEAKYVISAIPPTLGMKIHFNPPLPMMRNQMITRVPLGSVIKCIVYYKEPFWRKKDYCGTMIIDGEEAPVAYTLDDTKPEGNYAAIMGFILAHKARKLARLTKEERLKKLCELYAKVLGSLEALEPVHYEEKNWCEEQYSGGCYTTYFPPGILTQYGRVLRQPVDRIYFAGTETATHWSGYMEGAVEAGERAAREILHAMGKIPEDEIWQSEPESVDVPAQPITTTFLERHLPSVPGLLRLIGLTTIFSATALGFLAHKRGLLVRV

[4] = target: T3, Amine oxidase [flavin-containing] B; experiment: Time dependent inhibition of human recombinant MAOB at 0.25 to 1.25 uM using kynuramine substrate by fluorescence spectrophotometry based graphing of slopes of Lineweaver-Burk plots versus inhibitor concentration
[5] = target: T3, Amine oxidase [flavin-containing] B; experiment: Time dependent inhibition of human recombinant MAOB at […] using kynuramine substrate incubated for 5 to 35 mins by fluorescence spectrophotometry; settings: TDE = time-dependent effect, time 5-35 min
[6] = target: T3, Amine oxidase [flavin-containing] B; experiment: Time dependent inhibition of human recombinant MAOB at 0.25 to 1.25 uM using kynuramine substrate by fluorescence spectrophotometry based L-B plot analysis
[7] = target: T3, Amine oxidase [flavin-containing] B; experiment: Inhibition of human recombinant MAOB using kynuramine substrate incubated for 20 mins by fluorescence spectrophotometry
[8] = target: T3, Amine oxidase [flavin-containing] B; experiment: Inhibition of human recombinant MAOB assessed as enzyme activity recovery level at 4 times IC50 using kynuramine substrate incubated for 15 mins followed by 24 hrs dialysis by fluorescence spectrophotometry; parameters: scale not given: the % may be the effect or the level left; settings: 0.25 h
MAO-A [9] = target: T4, MAO-A (Homo sapiens, UniProt P21397); experiment: Inhibition of human recombinant MAOA assessed as enzyme activity recovery level at 4 times IC50 using kynuramine substrate incubated for 15 mins followed by 24 hrs dialysis by fluorescence spectrophotometry; type: toxicity; parameters: scale not given: the % may be the effect or the level left; settings: probe kynuramine, read-out: Activity
T4 sequence (P21397 whole entry): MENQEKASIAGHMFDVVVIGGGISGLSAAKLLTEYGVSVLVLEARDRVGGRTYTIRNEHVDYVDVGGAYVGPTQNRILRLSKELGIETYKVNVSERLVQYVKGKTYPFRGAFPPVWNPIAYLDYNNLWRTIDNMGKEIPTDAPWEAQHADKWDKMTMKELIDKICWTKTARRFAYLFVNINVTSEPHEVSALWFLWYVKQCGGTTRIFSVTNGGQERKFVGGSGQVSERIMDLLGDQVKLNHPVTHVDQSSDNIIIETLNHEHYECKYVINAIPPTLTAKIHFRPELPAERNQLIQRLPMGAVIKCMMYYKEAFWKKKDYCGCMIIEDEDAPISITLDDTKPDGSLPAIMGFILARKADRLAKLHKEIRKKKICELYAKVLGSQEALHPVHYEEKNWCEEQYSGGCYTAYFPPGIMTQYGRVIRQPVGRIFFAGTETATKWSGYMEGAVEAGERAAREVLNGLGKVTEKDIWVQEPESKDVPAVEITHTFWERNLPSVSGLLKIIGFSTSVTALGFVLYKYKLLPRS

[10] = target: T5, Amine oxidase [flavin-containing] A (Homo sapiens, UniProt P21397); experiment: Inhibition of human recombinant MAOA using kynuramine substrate incubated for 20 mins by fluorescence spectrophotometry; type: toxicity
T5 sequence (P21397 whole entry): T4 sequence (P21397 whole entry)

MAO-A [11] = target: T4, MAO-A; experiment: Resistance index, ratio of IC50 for toloxatone to IC50 for test compound for inhibition of human recombinant MAOA using kynuramine substrate incubated for 20 mins by fluorescence spectrophotometry; type: toxicity; settings: probe kynuramine, read-out: Ratio IC50
MAO-A [12] = target: T4, MAO-A; experiment: Inhibition of human recombinant MAOA assessed as enzyme activity recovery level at 4 times IC50 using kynuramine substrate incubated for 15 mins followed by without dialysis by fluorescence spectrophotometry; type: toxicity; parameters: scale not given: the % may be the effect or the level left; settings: probe kynuramine, read-out: Activity
Rattus norvegicus = species: Rattus norvegicus; experiment: Selectivity index, ratio of IC50 for inhibition of rat brain MAOA to IC50 for rat brain MAOB
MAO-A [13] = target: T4, MAO-A; experiment: Inhibition of human recombinant MAOA assessed as enzyme activity recovery level using kynuramine substrate incubated for 15 mins followed by 24 hrs dialysis by fluorescence spectrophotometry; type: toxicity; parameters: scale not given: the % may be the effect or the level left; settings: probe kynuramine, read-out: Activity

For C#CCN(C)C1CCc2ccccc2C1 (racemic) [listing 1 of 2 here], the IC50 [1] was 51 nM and the IC50 [2] was 41 nM.

With C#CCNC1CCc2ccccc2C1 (racemic) the Ratio IC50 (Homo sapiens) was 0.05, the Activity [3] was 0.3% and the Ki [4] was 435 nM. The TDI [5] was “Tde”, the Ki [6] was 460 nM and the IC50 [7] was 14.6 µM. It also gave an Activity [8] of 7.5%, an activity at 0.25 h (MAO-A [9]) of 102% and an IC50 [10] of 721 nM. It also gave a selectivity ratio at 20 min (MAO-A [11]) of 5 and an activity at 0.25 h (MAO-A [12]) of 46%.

For C#CCN(C)C1CCc2ccccc2C1 (racemic) [listing 2 of 2 here], the Ratio IC50 (Rattus norvegicus) was 1.2.

Work on C#CCN(C)C1CCc2ccccc2C1 (single isomer, unassigned; (+)) [listing 1 of 2 here] yielded an IC50 [1] of 140 nM and an IC50 [2] of 16 nM.

With C#CCN(C)C1CCc2ccccc2C1 (single isomer, unassigned; (+)) [listing 2 of 2 here] the Ratio IC50 (Rattus norvegicus) was 8.8.

C#CCN(C)C1CCc2ccccc2C1 (single isomer, unassigned; (-)) [listing 1 of 2 here] showed an IC50 [1] of 46 nM and an IC50 [2] of 88 nM.

C#CCN(C)C1CCc2ccccc2C1 (single isomer, unassigned; (-)) [listing 2 of 2 here] was tested, and the Ratio IC50 (Rattus norvegicus) was 0.5.

For C#CCN(C)Cc1ccccc1 [PARGYLINE], the activity at 0.25 h (MAO-A [13]) was 0.9%.
